The target in one assay is human S1P3 receptor (Homo sapiens (Human), UniProt Q99500). Kind of assay: Activation or block of activation of human S1P3 receptor, Ca+2 FLIPR assay. In kind it is cell-based. The following applies: for IC50: read-out: S1P3 IC50. In short, it runs like this: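 T24 cells stably expressing human S1P3, grown in charcoal-treated FBS, dye-loaded and read on FLIPR for calcium after ligand addition in HBSS/20 mM HEPES (1 s readings for 75 s, then every 10 s for 2.5 min). Agonist or antagonist mode; S1P positive control in 4 mg/ml fatty-acid-free BSA. IC50 by Levenberg–Marquardt regression.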
Chain of human S1P3 receptor (Q99500 whole entry): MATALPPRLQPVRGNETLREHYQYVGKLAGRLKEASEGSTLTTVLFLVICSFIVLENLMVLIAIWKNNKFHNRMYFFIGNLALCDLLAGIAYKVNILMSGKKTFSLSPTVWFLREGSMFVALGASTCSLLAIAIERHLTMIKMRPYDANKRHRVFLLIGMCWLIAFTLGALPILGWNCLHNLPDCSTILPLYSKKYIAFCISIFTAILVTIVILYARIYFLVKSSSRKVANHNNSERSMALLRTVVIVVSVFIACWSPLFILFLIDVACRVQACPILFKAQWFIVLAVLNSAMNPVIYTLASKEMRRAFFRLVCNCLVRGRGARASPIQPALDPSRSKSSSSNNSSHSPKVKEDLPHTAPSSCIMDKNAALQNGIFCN

A further assay relates to perfused porcine eyes. The following applies: by altering paracellular permeability, IOVS 45, 2263, 2004; cited from earlier work.
Setting [1] is: T24 cells stably expressing the human S1P3 receptor, FLIPR Ca+2 response, 0.61 nM to 10,000 nM.
Setting [2] is: T24 cells stably expressing the human S1P3 receptor, value in brackets.

The values below come from patent US8524917B2, “6-substituted indole-3-carboxylic acid amide compounds having sphingosine-1-phosphate (S1P) receptor antagonist biological activity” (Allergan, Inc., priority 2007, dated 2013).

Each structure is given as a SMILES string. Like-named read-outs stand apart in the source and are kept apart here. Where only a bound is given, the exact number is not on record here.

Take `CC(C)c1c(C(=O)NCc2ccc(F)cc2)c2ccc(NC3CCCC3)cc2n1Cc1ccccc1` [Compound 192, 1-Benzyl-6-(cyclopentylamino)-N-(4-fluorobenzyl)-2-isopropyl-1H-indole-3-carboxamide]: at human S1P3 receptor, the “S1P3 (% inh)” value is listed as 70 nM (100) % and the IC50 was 70 nM.

Take `CC(C)c1c(C(=O)NCc2cncc(F)c2)c2ccc(NC3CCCC3)cc2n1Cc1ccccc1` [Compound 193, 1-Benzyl-6-(cyclopentylamino)-N-((5-fluoropyridin-3-yl)methyl)-2-isopropyl-1H-indole-3-carboxamide]: on human S1P3 receptor, the “S1P3 (% inh)” value is listed as 163 nM (100) % and the half-maximal inhibitory concentration (IC50) worked out at 163 nM.

With `CC(C)c1c(C(=O)NCc2cc(F)cc(F)c2)c2ccc(NC3CCC3)cc2n1Cc1ccccc1` [Compound 194, 1-Benzyl-6-(cyclobutylamino)-N-(3,5-difluorobenzyl)-2-isopropyl-1H-indole-3-carboxamide], on human S1P3 receptor, the “S1P3 (% inh)” value is recorded as 20 nM (100) % and the IC50 stood at 20 nM.

Turning to `CC(C)c1c(C(=O)NCc2ccc(F)cc2)c2ccc(NC3CCC3)cc2n1Cc1ccccc1` [Compound 195, 1-Benzyl-6-(cyclobutylamino)-N-(4-fluorobenzyl)-2-isopropyl-1H-indole-3-carboxamide], the IC50 at human S1P3 receptor (setting [1]) worked out at 51 nM. Moreover, the “S1P3 (% inh)” value at human S1P3 receptor (setting [2]) stood at 99%.

On to `CC(C)c1c(C(=O)NCc2ccc(F)c(F)c2)c2ccc(NC3CCC3)cc2n1Cc1ccccn1` [Compound 197, 6-(Cyclobutylamino)-N-(3,4-difluorobenzyl)-2-isopropyl-1-(pyridin-2-ylmethyl)-1H-indole-3-carboxamide], for which, on human S1P3 receptor (setting [1]), the half-maximal inhibitory concentration (IC50) was determined as 67 nM. Also, the “S1P3 (% inh)” value on human S1P3 receptor (setting [2]) is 100%.

With `[2H]C([2H])([2H])C([2H])(Oc1ccc2c(C(=O)NCc3ccc(F)c(F)c3)c(C(=C)C)n(Cc3ccccn3)c2c1)C([2H])([2H])[2H]` [Compound 199, N-(3,4-Difluorobenzyl)-2-isopropenyl-6-isopropoxy-1-(pyridin-2-ylmethyl)-1H-indole-3-carboxamide-d7], the IC50 at human S1P3 receptor (setting [1]) is 51 nM. Further, the “S1P3 (% inh)” value at human S1P3 receptor (setting [2]) is reported as 100%.

As to `CC(C)c1c(C(=O)NCc2ccc(F)c(F)c2)c2ccc(N3CCOCC3)cc2n1Cc1ccccn1` [Compound 207, N-(3,4-Difluorobenzyl)-2-isopropyl-6-morpholino-1-(pyridin-2-ylmethyl)-1H-indole-3-carboxamide], the IC50 at human S1P3 receptor (setting [1]) stood at 130 nM. The “S1P3 (% inh)” value on human S1P3 receptor (setting [2]) turned out to be 97%.

For the compound `CC(C)c1c(C(=O)NCc2ccc(F)c(F)c2)c2ccc(OC3CCCC3)cc2n1Cc1ncco1` [Compound 211, 6-(Cyclopentyloxy)-N-(3,4-difluorobenzyl)-2-isopropyl-1-(oxazol-2-ylmethyl)-1H-indole-3-carboxamide], the IC50 at human S1P3 receptor (setting [1]) was 10 nM. On human S1P3 receptor (setting [2]), the “S1P3 (% inh)” value is 100%.

On to `CCCOc1ccc2c(C(=O)NCc3ccc(F)c(F)c3)c(C(C)C)n(Cc3ncco3)c2c1` [Compound 212, N-(3,4-Difluorobenzyl)-2-isopropyl-1-(oxazol-2-ylmethyl)-6-propoxy-1H-indole-3-carboxamide], for which, at human S1P3 receptor, the “S1P3 (% inh)” value is reported as 393 nM (100) % and the half-inhibitory concentration (IC50) was found to be 393 nM.

On to `CC(C)Oc1ccc2c(C(=O)NCc3ccc(F)c(F)c3)c(C(C)C)n(Cc3ncco3)c2c1` [Compound 213, N-(3,4-Difluorobenzyl)-6-isopropoxy-2-isopropyl-1-(oxazol-2-ylmethyl)-1H-indole-3-carboxamide], for which, on human S1P3 receptor (setting [1]), the IC50 was found to be 189 nM. Besides, the “S1P3 (% inh)” value at human S1P3 receptor (setting [2]) is 100%.

Consider `CC(C)c1c(C(=O)NCc2ccc(F)c(F)c2)c2ccc(Oc3nccs3)cc2n1Cc1ncco1` [Compound 214, N-(3,4-Difluorobenzyl)-2-isopropyl-1-(oxazol-2-ylmethyl)-6-(thiazol-2-yloxy)-1H-indole-3-carboxamide], for which, at human S1P3 receptor (setting [1]), the IC50 is 53 nM. In addition, at human S1P3 receptor (setting [2]), the “S1P3 (% inh)” value is on record as 100%.

Consider `CC(C)c1c(C(=O)NCc2ccc(F)c(F)c2)c2ccc(Oc3ncc(Br)s3)cc2n1Cc1ncco1` [Compound 215, 6-(5-Bromothiazol-2-yloxy)-N-(3,4-difluorobenzyl)-2-isopropyl-1-(oxazol-2-ylmethyl)-1H-indole-3-carboxamide], for which the IC50 on human S1P3 receptor (setting [1]) was 23 nM. Besides, the “S1P3 (% inh)” value at human S1P3 receptor (setting [2]) was 99%.

Regarding `Cc1cc(Cn2c(C(C)C)c(C(=O)NCc3ccc(F)c(F)c3)c3ccc(O)cc32)no1` [Compound 218, N-(3,4-Difluorobenzyl)-6-hydroxy-2-isopropyl-1-((5-methylisoxazol-3-yl)methyl)-1H-indole-3-carboxamide], the IC50 at human S1P3 receptor (setting [1]) was 5400 nM. The “S1P3 (% inh)” value at human S1P3 receptor (setting [2]) is 67%.

Consider `Cc1cc(Cn2c(C(C)C)c(C(=O)NCc3ccc(F)c(F)c3)c3ccc(OC4CCCC4)cc32)no1` [Compound 219, 6-(Cyclopentyloxy)-N-(3,4-difluorobenzyl)-2-isopropyl-1-((5-methylisoxazol-3-yl)methyl)-1H-indole-3-carboxamide], for which, on human S1P3 receptor (setting [1]), the IC50 came out at 38 nM. Besides, the “S1P3 (% inh)” value on human S1P3 receptor (setting [2]) is 99%.

On to `CCOC(=O)Cn1c(C(C)C)c(C(=O)NCc2ccc(F)c(F)c2)c2ccc(OC3CCCC3)cc21` [Compound 223, Ethyl 2-(6-(Cyclopentyloxy)-3-(3,4-difluorobenzylcarbamoyl)-2-isopropyl-1H-indol-1-yl)acetate], for which, at human S1P3 receptor, the “S1P3 (% inh)” value was 24 nM (100) % and the IC50 was 24 nM.

In the case of `COC(=O)c1c(C(=O)NCc2ccc(F)c(F)c2)c2ccc(OC(C)C)cc2n1Cc1ccccn1` [Compound 226, Methyl 3-(3,4-Difluorobenzylcarbamoyl)-6-isopropoxy-1-(pyridin-2-ylmethyl)-1H-indole-2-carboxylate], on human S1P3 receptor (setting [1]), the half-maximal inhibitory concentration (IC50) came to 87 nM. The “S1P3 (% inh)” value on human S1P3 receptor (setting [2]) is 100%.

As to `CCCCCCCCCCCCC/C=C/[C@@H](O)[C@@H](N)COP(=O)(O)O` [Compound S1P, Sphingosine-1-Phosphate], the “decrease of outflow facility” value with perfused porcine eyes is more than 30%.

In the case of `CC(C)c1c(C(=O)NCc2ccc(F)c(F)c2)c2ccc(OC3CCCO3)cc2n1Cc1ccccn1` (stereo not shown) [drawing 164], the IC50 on human S1P3 receptor (setting [1]) came out at 9 nM. Also, on human S1P3 receptor (setting [2]), the “S1P3 (% inh)” value is given as 100%.

Take `CC(C)c1c(C(=O)NCc2ccc(F)c(F)c2)c2ccc(OC3CCCO3)cc2n1Cc1ccccn1` (stereo not shown) [drawing 169]: the IC50 on human S1P3 receptor (setting [1]) turned out to be 9 nM. On human S1P3 receptor (setting [2]), the “S1P3 (% inh)” value was 100%.

For orientation: IC50 means the concentration needed to halve the response being measured.
